This is an account of results in patent US7241785B2, “Five-membered heterocyclic alkanoic acid derivative” (Takeda Pharmaceutical Company Limited, priority 2001, dated 2007).

Broadly, the melting point is the temperature of the solid-liquid transition. As usually defined, the EC50 is the concentration needed to bring the measured effect to its halfway point. The low end stands for higher potency in that assay, the high end for lower potency in that assay.

Data set [1] deals with KKA^y mice. As to the kind of experiment: Hypoglycemic and hypolipidemic (hypotriglyceridemic) actions in mice. Conditions: Mus musculus, po, 96 h, 0.01% in powdery diet, four days. The class given is in vivo. As to the method: Hypoglycemic and Hypolipidemic (Hypotriglyceridemic) Actions in Mice
Test compounds were mixed in a powdery diet (CE-2, Japan Clea) at the concentration of 0.01%, and freely given to KKA^y mice (11 to 12 weeks old, 5 mice per group), a model of type 2 diabetes mellitus, for four days. During this period, water was given freely. Blood was sampled from orbital venous plexus, and glucose and triglyceride levels in plasma separated from the blood were determined enzymatically using L type Wako Glu2 (Wako Pure Chemical Industries, Ltd.) or L type Wako TG.H (Wako Pure Chemical Industries, Ltd.), respectively.
In the Table, “hypoglycemic action (%)” represents a percent reduction (%) of the blood glucose level in the treatment group when the blood glucose level in the non-treatment group is taken as 100%. In addition, “hypolipidemic action (%)” represents a percent reduction (%) of the blood triglyceride level in the treatment group when the blood triglyceride level in the non-treatment group is taken as 100%.

For data set [2], the system named is KKA^y mice. As to the kind of experiment: Total cholesterol lowering action and plasma anti-arteriosclerosis index-enhancing action in mice. The class given is in vivo. Conditions: Mus musculus, po, 96 h, 0.01% in powdery diet, four days. As to the method:
Total Cholesterol Lowering Action and Plasma Anti-Arteriosclerosis Index-Enhancing Action in Mice
Test compounds were mixed in a powdery diet (CE-2, Japan Clea concentration of 0.01%, and freely given to KKA^y mice (11 to 12 weeks old, 5 mice per group), a model of type 2 diabetes mellitus, for four days. During this period, water was given freely. Blood was sampled from orbital venous plexus, and components in plasma separated from the blood were determined. Total cholesterol levels were determined using L type Wako Cholesterol (Wako Pure Chemical Industries, Ltd.). Precipitation reagent for HDL cholesterol was added to a part of the plasma to precipitate non-HDL lipoprotein, and cholesterol (HDL cholesterol) in the resulting supernatant was determined. The plasma anti-arteriosclerosis index [(HDL cholesterol/total cholesterol)×100] was calculated using these cholesterol levels.
In the Table, “total cholesterol lowering action (%)” represents a percent reduction (%) of the total cholesterol level in the treatment group when the total cholesterol level in the non-treatment group is taken as 100%. In addition, “plasma anti-arteriosclerosis index-enhancing action (%)” represents a percent increase (%) of the plasma anti-arteriosclerosis index in the treatment group when the plasma anti-arteriosclerosis index in the non-treatment group is taken as 100%.

Data set [3] deals with T1, PPARδ-RXRα heterodimer (Homo sapiens, UniProt Q03181).
T1 sequence (Q03181 1-441): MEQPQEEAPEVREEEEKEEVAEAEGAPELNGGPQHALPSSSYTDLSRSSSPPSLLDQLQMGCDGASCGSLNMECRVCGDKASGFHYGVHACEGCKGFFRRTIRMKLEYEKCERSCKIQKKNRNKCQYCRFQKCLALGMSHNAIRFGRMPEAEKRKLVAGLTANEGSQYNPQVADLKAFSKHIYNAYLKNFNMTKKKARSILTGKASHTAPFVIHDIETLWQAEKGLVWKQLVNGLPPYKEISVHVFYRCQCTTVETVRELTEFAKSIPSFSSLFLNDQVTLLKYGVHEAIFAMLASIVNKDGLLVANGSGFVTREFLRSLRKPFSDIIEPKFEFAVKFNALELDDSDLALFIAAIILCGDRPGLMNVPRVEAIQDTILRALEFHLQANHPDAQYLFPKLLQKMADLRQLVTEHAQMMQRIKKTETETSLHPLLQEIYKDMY
T1 sequence (P19793 1-462 partner): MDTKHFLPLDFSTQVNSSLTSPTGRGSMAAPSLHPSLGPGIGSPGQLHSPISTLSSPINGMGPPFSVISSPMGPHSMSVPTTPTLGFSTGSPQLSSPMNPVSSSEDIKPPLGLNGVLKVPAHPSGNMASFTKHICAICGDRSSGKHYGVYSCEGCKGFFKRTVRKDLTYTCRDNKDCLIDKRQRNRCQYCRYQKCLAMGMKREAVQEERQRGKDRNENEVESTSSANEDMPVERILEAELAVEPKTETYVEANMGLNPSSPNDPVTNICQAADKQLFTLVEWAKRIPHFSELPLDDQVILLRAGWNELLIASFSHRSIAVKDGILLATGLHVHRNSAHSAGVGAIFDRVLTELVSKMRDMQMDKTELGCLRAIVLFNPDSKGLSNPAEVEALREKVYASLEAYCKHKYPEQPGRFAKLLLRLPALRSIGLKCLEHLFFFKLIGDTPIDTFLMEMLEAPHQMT
The data set can be described thus: PPARδ-RXRα heterodimer ligand activity (luciferase reporter, PPARδ:RXRα:4ERPP/CHO-K1 cells). The class given is cell-based. Particulars: concentration for 50% of maximum fold induction of luciferase, 48 hrs. The arrangement: expressed in transfected cells. Here is the method:
(§1) PPARδ-RXRα Heterodimer Ligand Activity
PPARδ:RXRα:4ERPP/CHO-K1 cells obtained in Reference Example 5a were cultured in HAM F12 medium (produced by NISSUI SEIYAKU) containing 10% fetal bovine serum (produced by Life Technologies, Inc., USA) and then seeded in a 96-well white plate (produced by Corning Costar Corporation, USA) at the density of 2×10^4 cells/well, and cultured in a CO2 gas incubator at 37° C. overnight.
After washing the 96 well white plate with PBS (Phosphate-buffered saline), 90 μl of HAM F12 medium containing 0.1% fatty acid-free bovine serum albumin (BSA) and 10 μl of test compound were added, and the cells were cultured in a CO2 gas incubator at 37° C. for 48 hrs. After removing the medium, 40 μl of PicaGene 7.5 (produced by Wako Pure Chemical Industries, Ltd.) was added. After stirring, the luciferase activity was determined using Lumistar (produced by BMG Labtechnologies GmbH, Germany).
The fold induction was calculated from the luciferase activity of each test compound when the luciferase activity in the non-treatment group is taken as 1. The values of the test compound concentration and the fold induction were analyzed using PRISM 2.01 (produced by GraphPad Software Inc. USA) to calculate the EC50 values, the effective concentration of a test compound for 50% of the maximum fold induction. […]

Data set [4] has as its target T1, PPARδ-RXRα heterodimer. The data set can be described thus: PPARδ-RXRα heterodimer ligand activity (luciferase reporter, transfected COS-1 cells). The class given is cell-based. The arrangement: expressed in transfected cells; host or cells: COS-1 (transient, lipofectamine). Conditions: concentration for 50% of maximum fold induction of luciferase, 48 hrs. As to the method: as §1
The COS-1 cells obtained in Reference Example 9a were recovered, suspended in DMEM medium containing 0.1% fatty acid-free bovine serum albumin (BSA)(manufactured by Wako Pure Chemical Industries, Ltd.) (Nikken Biomedical Laboratory) and seeded in each well of a 96-well white plate (manufactured by Corning Costar Corporation, USA) at the density of 2×10^4 cells/well ([…]). Then, the test Compound ([…]) was added and the cells were cultured at 37° C., 5% CO2 for 48 hrs. The medium was removed from the 96-well white plate and PicaGine LT7.5 ([…], Wako Pure Chemical Industries) was added. After stirring, luciferase activity was measured using 1420 ARVO Multilabel Counter (Wallac)).
The fold induction was calculated from the luciferase activity of the test compound when the luciferase activity of the non-treatment group is taken as 1. The values of the test compound concentration and the fold induction were analyzed using PRISM 2.01 (produced by GraphPad Software Inc. USA) to calculate the EC50 values, the effective concentration of a test compound for 50% of the maximum fold induction.
Introduction of Plasmid and Reporter Plasmid for Expression of Human PPARδ, RXRα into COS-1 Cell […]
In general terms: In a reporter assay the amount or activity of a reporter protein is the signal.

Take `Cc1oc(-c2ccccc2)nc1COc1ccc(Sc2nc(-c3ccccc3)c(CCC(=O)O)s2)cc1` [Example 12, 3-[2-[4-(5-methyl-2-phenyl-4-oxazolylmethoxy)phenylthio]-4-phenyl-5-thiazolyl]propionic acid]: the melting point lay within 121 to 122 °C. Further, the inhibition in vivo at 0.01 % in diet with KKA^y mice [1] (percent reduction of blood glucose level vs non-treatment group (100%), read-out: Hypoglycemic action (%)) was 52%. Further, in the data set on KKA^y mice [1] (percent reduction of blood triglyceride level vs non-treatment group (100%), read-out: Hypolipidemic action (%)), the inhibition in vivo at 0.01 % in diet was 56%. In the data set with KKA^y mice [2] (percent increase of index [(HDL cholesterol/total cholesterol)×100] vs non-treatment group (100%)), the change in vivo at 0.01 % in diet was 15%. Moreover, the inhibition in vivo at 0.01 % in diet in the data set with KKA^y mice [2] (percent reduction of total cholesterol level vs non-treatment group (100%)) was found to be 22%. Also, the EC50 on PPARδ-RXRα heterodimer [3] was found to be 670 nM.

At PPARδ-RXRα heterodimer [4], `Cc1nc(SCc2ccc(OCc3nc(-c4ccccc4)oc3C)cc2)sc1CC(=O)O` [Example 58, [4-methyl-2-[4-(5-methyl-2-phenyl-4-oxazolylmethoxy)benzylthio]thiazol-5-yl]acetic acid] had an EC50 of 680 nM.

In turn, `Cc1nc(SCc2cccc(OCc3nc(-c4ccccc4)oc3C)c2)sc1CC(=O)O` [Example 60, [4-methyl-2-[3-(5-methyl-2-phenyl-4-oxazolylmethoxy)benzylthio]thiazol-5-yl]acetic acid] returned an EC50 on PPARδ-RXRα heterodimer [4] of 260 nM. Against the preceding molecule, the EC50 is about 2.6-fold lower.
